The record followed here is US20030070184A1, “LIGANDS FOR DISCOIDIN DOMAIN RECEPTOR TYROSINE KINASES AND COMPLEXES THEREOF” (priority 1999, published 2003).

The target of one test is T1, Shc PTB domain (Homo sapiens, UniProt P29353).
T1 construct: the PTB domain fusion construct comprises amino acids 1-225 of human p52 Shc; made in house; host or cells: E. coli
T1 sequence (P29353 1-225 isoform P29353-2): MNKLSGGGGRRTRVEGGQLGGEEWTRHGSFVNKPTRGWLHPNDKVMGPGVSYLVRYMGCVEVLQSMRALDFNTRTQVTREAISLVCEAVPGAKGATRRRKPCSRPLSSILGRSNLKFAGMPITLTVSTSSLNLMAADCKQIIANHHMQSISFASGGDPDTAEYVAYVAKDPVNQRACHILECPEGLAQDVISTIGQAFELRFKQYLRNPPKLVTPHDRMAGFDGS
As to the kind of experiment: Surface plasmon resonance competition: GST-Shc PTB domain binding to immobilized middle T antigen phosphopeptide. Conditions: BIAcore, soluble competing phosphopeptide; read-out: IC50, inhibition of binding of the Shc PTB domain to the middle T antigen phosphopeptide. The method, then:
Surface plasmon resonance—experiments were done with a BIAcore instrument (Pharmacia). A phosphopeptide corresponding to the NPXY sequence in the polyomavirus middle T antigen (mT) (LSLLSNPTpYSVNSK) was absorbed to the surface of a biosensor chip. Binding of soluble GST-Shc PTB domain fusion protein to the mT peptide was measured in the presence or absence of competing soluble phosphopeptides based on the sequences around Tyr 513 of DDR1b or Tyr 490 of the NGFR (HIIENPQpYFSD) (21).
Experiments were done with a BIAcore instrument (Pharmacia). A phosphopeptide corresponding to the NPXY sequence in the polyomavirus middle T antigen (LSLLSNPTpYSVMRSK) was absorbed to the surface of a biosensor chip. Binding of soluble GST-Shc PTB domain fusion protein to the middle T peptide was measured in presence or absence of competing soluble phosphopeptides based on the sequences around tyrosine 513 of DDR1b (ALLLSNPApYRLLLA) or tyrosine 490 of the NGF receptor (HIIENPQpYFSD).
(In SPR one partner is held on a chip, and binding of the other changes the refractive index at the surface.)

In test [1] the target is T2, Shc PTB domain binding to DDR1b (Homo sapiens, UniProt P29353).
T2 construct: the PTB domain fusion construct comprises amino acids 1-225 of human p52 Shc; made in house; host or cells: GST-Shc PTB: E. coli; DDR1b: lysate of transiently transfected, orthovanadate-treated 293 cells
T2 sequence (P29353 1-225 isoform P29353-2): T1 sequence (P29353 1-225 isoform P29353-2)
Nature of the test: GST-Shc PTB pull-down of tyrosine phosphorylated DDR1b from 293 lysates, competition by phosphopeptide. Conditions: lysates of transfected, orthovanadate-treated 293 cells. The method, then:
The results presented above raise the possibility that the Shc PTB domain binds to phosphorylated Tyr 513, which lies within the motif LLSNPAY in the DDR1b juxtamembrane insert. To test whether phosphorylation of Tyr 513 might form a PTB-binding site, a 14-mer phosphopeptide with the sequence ALLLSNPApYRLLLA was synthesized, corresponding to residues 505-518 of DDR1b. The ability of this phosphopeptide to bind the Shc PTB domain was analysed using a competition assay, in which the capacity of GST-Shc PTB fusion protein to bind tyrosine phosphorylated DDR1b from lysates of transfected 293 cells was measured in the presence of increasing amounts of the Tyr 513 phosphopeptide. […] To quantitate this interaction more precisely, surface plasmon resonance technology was used, in which soluble DDR1b phosphopeptide was employed to inhibit binding of the GST-Shc PTB fusion protein to a polyomavirus middle T antigen phosphopeptide, immobilized on a biosensor chip (21).
FIGS. 2A and 2B. Phosphorylation of Tyr 513 in the MCK10b (DDR1b) juxtamembrane insert forms a Shc PTB-binding site. […] Bound protein was detected by immunoblotting with antibodies to MCK10. […]

The next test deals with MMP-1. As to the kind of experiment: MMP-1 expression in HT 1080 cells (Western blot of conditioned media). It is filed as cell-based, human. Conditions: collagen type I 10 μg/ml, or TPA. On the procedure: The full length cDNA of DDR2 was stabilely expressed in HT 1080 cells using a retroviral expression construct (pLXSN). Neomycin resistant clones were tested for DDR2 expression. Parental and DDR2 overexpressing cells were cultivated in serum free medium and stimulated with 10 μg/ml collagen type I for various periods of time. The conditioned medium was 20-fold concentrated and analyzed for the presence of MMP-1 by Western blotting with the monoclonal antibody 41-IE5 (Oncogene Research Products; Cambridge, Mass.).
For orientation: A western blot detects proteins with antibodies after separation by electrophoresis.

A further test concerns the target T3, DDR1b (Homo sapiens, UniProt Q08345).
T3 construct: endogenous in cells; host or cells: T-47D human mammary carcinoma cells (A431 also named)
Nature of the test: Tyrosine phosphorylation of endogenous DDR1b in carcinoma cells (T-47D; A431), immunoprecipitation and anti-phosphotyrosine blot. It is filed as cell-based. Particulars: PDGF or EGF 5 min, collagen type I overnight. An excerpt: To investigate the effects of collagen on cells that express endogenous DDR tyrosine kinases, the mammary carcinoma cell line T-47D was employed. Previous results have shown that DDR1 is highly expressed in human carcinoma cell lines, in particular, the breast cancer cell lines BT-20, MDA-MB-175 and T-47D (1) (Perez et al., 1996). […] The time course of endogenous DDR1b tyrosine phosphorylation in T-47D cells was even slower than in 293 cells, with maximal activation being achieved only after stimulation for 18 hours.
To further investigate the role of different types of collagen in the activation of DDR1 and DDR2, collagen types I, II, III and V purified from human placenta and collagen type II from bovine tracheal cartilage were obtained. To test their ability to induce receptor tyrosine phosphorylation, 293 cells overexpressing DDR1 or DDR2 were employed. […] The various types of collagen were also tested for their ability to stimulate tyrosine phosphorylation of endogenous DDR1b present in T-47D cells. For this purpose, DDR1b was immunoprecipitated from lysates of stimulated T-47D cells and analyzed by Western blotting with anti-phosphotyrosine antibodies. […] As previously shown, DDR1 tyrosine phosphorylation could also be activated by treating cells with 1 mM orthovanadate, an inhibitor of tyrosine phosphatases. Furthermore, gelatin which contains heat denatured collagen was tested for its capacity to induce DDR1b tyrosine phosphorylation.
Integrins of the type α1β1 and α2β1 have long been known to be receptors for collagen. Therefore, tests were conducted to determine if these integrins are somehow involved in the activation of DDR1b. The mammary carcinoma cell line T-47D, which endogenously expresses the b-isoform of DDR1, was used. Monoclonal antibodies directed against the extracellular domains of integrins can block binding to collagen and therefore signaling of integrins. T-47D cells were treated with antibody A2-IIE10 against α2-integrin and antibody DE9 against β1-integrin (both from Upstate Biotechnology) in the absence or presence of 10 μg/ml collagen type I overnight. DDR1b or Shc were immunoprecipitated from cellular lysates and analyzed by Western blotting with antiphosphotyrosine antibody.
DDR1b and DDR2 were transfected into 293 cells and were stimulated with 10 µg/ml mouse collagen type I for different periods of time. (FIG. 9A and FIG. 9B) Total cellular lysates were probed with antiphosphotyrosine antibody. Maximal activation is seen 90 min after stimulation of DDR1b (FIG. 9A) and DDR2 (FIG. 9B). (FIG. 9C) Human mammary carcinoma T-47D cells were cultivated on 10 cm dishes to confluence and starved in 0.5% serum overnight. Cells were stimulated with collagen type I for various periods of time and lysed. DDR1b was immunoprecipitated from the lysates and analyzed by Western blotting with antiphosphotyrosine antibody. Maximal phosphorylation of DDR1b is seen after stimulation for 18 h. An unidentified, tyrosine phosphorylated protein with an apparent molecular weight of 115 kDa is copurified in the immunoprecipitations. […] Prolonged stimulation with collagen increases the processing of DDR1b in T-47D cells, indicated by an additional 62 kDa band. (FIGS. 9E and 9F) DDR1b was immunoprecipitated from overexpressing 293 cells (E) and T-47D (FIG. 9F) cells and subjected to an in vitro kinase reaction. The incorporation of [^32P]-phosphate is monitored by SDS-PAGE followed by autoradiograpy.

For another test, the system named is MAPK. As to the kind of experiment: MAPK activation (mobility shift) in T-47D or HT 1080-DDR2 cells. It is filed as cell-based, human. Particulars: T-47D or HT 1080 overexpressing DDR2; PDGF or EGF 5 min, collagen type I overnight. On the procedure:
T-47D or HT 1080 overexpressing DDR2 cells were stimulated with PDGF or EGF for 5 min, with collagen type I overnight and with a combination of EGF/collagen or PDGF/collagen. […] Furthermore, activation of MAPK by EGF is not influenced by simultaneous activation of DDR receptors.

Where a SMILES comes first, the peptide text is derived from it. [ ]: non-standard residue; d: D form. pY = N[C@@H](Cc1ccc(OP(=O)(O)O)cc1)C(=O)O

T3 sequence (Q08345 19-913): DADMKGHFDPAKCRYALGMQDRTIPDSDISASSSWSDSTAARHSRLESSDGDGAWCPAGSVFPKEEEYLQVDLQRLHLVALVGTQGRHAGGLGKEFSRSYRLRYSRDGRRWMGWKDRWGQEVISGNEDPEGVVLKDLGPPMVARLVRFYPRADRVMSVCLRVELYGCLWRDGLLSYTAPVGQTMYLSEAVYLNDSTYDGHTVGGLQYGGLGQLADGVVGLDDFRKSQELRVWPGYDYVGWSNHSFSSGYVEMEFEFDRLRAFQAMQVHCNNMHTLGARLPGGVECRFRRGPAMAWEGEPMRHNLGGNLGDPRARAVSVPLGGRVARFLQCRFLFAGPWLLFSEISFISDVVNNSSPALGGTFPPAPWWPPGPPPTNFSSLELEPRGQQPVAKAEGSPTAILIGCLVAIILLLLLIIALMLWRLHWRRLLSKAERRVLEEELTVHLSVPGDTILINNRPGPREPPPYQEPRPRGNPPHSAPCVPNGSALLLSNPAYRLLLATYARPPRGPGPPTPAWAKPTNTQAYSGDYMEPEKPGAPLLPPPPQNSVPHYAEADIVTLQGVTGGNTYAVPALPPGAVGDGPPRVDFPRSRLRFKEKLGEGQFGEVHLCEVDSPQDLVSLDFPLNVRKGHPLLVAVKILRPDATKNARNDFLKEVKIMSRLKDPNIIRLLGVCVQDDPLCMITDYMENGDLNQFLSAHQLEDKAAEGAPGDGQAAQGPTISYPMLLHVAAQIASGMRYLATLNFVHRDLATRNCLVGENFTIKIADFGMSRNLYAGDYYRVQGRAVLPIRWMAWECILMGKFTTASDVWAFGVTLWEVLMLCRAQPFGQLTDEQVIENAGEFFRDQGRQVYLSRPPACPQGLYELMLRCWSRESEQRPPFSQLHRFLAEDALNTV

One may read the IC50 as the point on the concentration scale where inhibition reaches its midpoint. With `CC(C)C[C@H](NC(=O)[C@H](C)N)C(=O)N[C@@H](CC(C)C)C(=O)N[C@@H](CC(C)C)C(=O)N[C@@H](CO)C(=O)N[C@@H](CC(N)=O)C(=O)N1CCC[C@H]1C(=O)N[C@@H](C)C(=O)N[C@@H](Cc1ccc(OP(=O)(O)O)cc1)C(=O)N[C@@H](CCCNC(=N)N)C(=O)N[C@@H](CC(C)C)C(=O)N[C@@H](CC(C)C)C(=O)N[C@@H](CC(C)C)C(=O)N[C@@H](C)C(=O)O` [DDR1b phosphopeptide, ALLLSNPApYRLLLA] (H-ALLLSNPA[pY]RLLLA-OH; N-terminus and C-terminus assumed), the IC50 at Shc PTB domain is around 800 nM. In test [1], the “phosphopeptide concentration for full inhibition of Shc PTB binding to DDR1b” value worked out at 2 µM and the “phosphopeptide concentration that inhibited binding of the Shc PTB domain to DDR1b” value is 100 nM.
As for `CCCCCCCCCCCCCC(=O)O[C@@H]1[C@@H](C)[C@@]2(O)[C@@H](C=C(CO)C[C@]3(O)C(=O)C(C)=C[C@@H]23)[C@@H]2C(C)(C)[C@]12OC(C)=O` [TPA, phorbol 12-myristate 13-acetate], the “expression of MMP-1 in HT 1080 cells overexpressing DDR2” value in the test with MMP-1 (4 days) is “induced”. Besides, the “expression of MMP-1 in parental HT 1080 cells” value with MMP-1 is given as “induced”.
For PDGF [reference compound], the “activation of DDR1b in T-47D cells” value on DDR1b is “not”. Moreover, in the test on MAPK, the MAPK activation entry is reported as “not”.
